Common to all, as to assay: inhibition of tumour cell growth, NCI panel, 48 h
In assay [1] the test system is ACHN renal.
Assay [2] has as its system CAKI-1 renal.
In assay [3] the test system is EKVX NSCLC.
In assay [4] the test system is NCI-H226 lung.
Assay [5] has as its system OVCAR-8 ovarian.
Assay [6] relates to SF-268 CNS.
The subject of assay [7] is SK-MEL-5 melanoma.
For assay [8], the system named is SK-OV-3 ovarian.
The test system of assay [9] is SNB-75 CNS.
Assay [10] relates to UACC-257 melanoma.

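Each compound was tested at five concentrations against cells in 96-well plates for 48 hours. At the GI50, growth is halved. TGI: concentration producing complete growth inhibition.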 Some results are limits rather than exact numbers.

Consider `Cc1cc(NCCCCCCCNc2cc(C)nc3cc([N+](=O)[O-])ccc23)c2ccc([N+](=O)[O-])cc2n1`, for which the TGI is 28.5 µM in [1]; 65.2 µM in assay [2]; 35.9 µM in [3]; 37.4 µM in assay [4]; 3.85 µM in assay [5]; 7.5 µM in assay [6]. Moreover, the TGI is 29.9 µM in [7], 49.3 µM in assay [8], 40.9 µM in [9] and 36.9 µM in assay [10].

In the case of `CC(C)(C)c1cc(C2COC(c3cc(C(C)(C)C)c(O)c(C(C)(C)C)c3)CO2)cc(C(C)(C)C)c1O` (centres undefined), the TGI in [1], in assay [2], in [3], in assay [4], in assay [5] and in [6] was over 100 µM in each case. Moreover, the TGI in assay [7], in assay [8], in assay [9] and in assay [10] was over 100 µM in each case.

Take `CC[C@@H](/C=C\CCC(=O)C[C@H](O)CCC=C(C)C)O[Si](C(C)C)(C(C)C)C(C)C`: the TGI in assay [1], in assay [2], in assay [3], in assay [4], in [5] and in assay [6] was over 100 µM each time. For the same compound, the TGI in assay [7], in assay [8], in assay [9] and in assay [10] was over 100 µM in each case.

On to `CC(C)[C@@H]1ON1C(C)c1ccccc1` (some centres undefined), for which the TGI in assay [1] was over 100 µM; in [2], 34.7 µM; in assay [3], over 100 µM; in assay [4], over 100 µM; in assay [5] it was over 100 µM; in assay [6], over 100 µM. The TGI in assay [7], in assay [8], in assay [9] and in [10] was over 100 µM throughout.

On to `CCOc1cc(NC(C)=O)ccc1C(=O)NN1C(=O)C(Cl)C1c1ccco1` (centres undefined), for which the TGI in [1] is 29.1 µM; in assay [2], 30.9 µM; in [3], 36.2 µM; in [4], over 100 µM; in assay [5] it was over 100 µM; in assay [6], 35.1 µM. Moreover, the TGI in assay [7] turned out to be 27.9 µM; in [8], 38.2 µM; in assay [9], 26.7 µM; in assay [10], 34.2 µM.

`C/C(=C/CC[C@]1(CO)CC[C@]2(CO)[C@H](CC[C@@H]3[C@@]4(C)CC[C@H](OC5OCC(O)C(O)C5OC5OC(CO)C(O)C(O)C5O)C(C)(C)[C@@H]4CC[C@]32C)[C@H]1O)CO` (some centres undefined): the TGI in assay [1], in assay [2], in assay [3], in [4], in assay [5] and in assay [6] was over 100 µM in each case. Further, the TGI in [7], in [8], in [9] and in assay [10] was over 100 µM throughout.

As for `CCN(CC)CCNCc1cc(Cl)cc2c1OCOC2`, the TGI in assay [1], in assay [2], in assay [3], in assay [4], in assay [5] and in assay [6] was over 10 µM each time. In addition, the TGI in assay [7], in [8] and in [9] was over 10 µM in each case.

For the compound `CCOC(=O)c1ccc(C(=O)C(C(C)=O)C(=O)OC(C)(C)C)[nH]1` (centres undefined), the TGI in assay [1], in assay [2], in assay [3], in assay [4], in assay [5] and in assay [6] was over 100 µM each time. The TGI in assay [7], in [8] and in [9] was over 100 µM throughout.

In the case of `COc1cc2c(cc1OC)C1(c3ccc(Cl)cc3)ON=C(c3ccccc3)N1CS2` (centres undefined), the TGI in assay [1], in assay [2], in assay [3], in assay [4], in assay [6] and in assay [7] was over 100 µM throughout. For the same compound, the TGI in assay [8], in assay [9] and in [10] was over 100 µM throughout.

On to `CNc1ccc(N)cc1C(=O)N1CCC[C@H]1CO`, for which the TGI in assay [1], in assay [2], in assay [3], in [4], in assay [5] and in [6] was over 100 µM each time. Besides, the TGI in assay [7], in assay [8], in assay [9] and in assay [10] was over 100 µM throughout.

For the compound `Cc1ccc2c(=O)cc(-c3ccc(-c4ccccc4)s3)[nH]c2n1`, the TGI in [1] was over 100 µM; in assay [2] it was over 100 µM; in [3] it was over 81.4 µM; in assay [4], over 100 µM; in assay [5], over 100 µM; in [6] it was over 100 µM. In addition, the TGI in [7] is over 39.7 µM; in [8], over 100 µM; in [9], over 100 µM; in [10] it was over 100 µM.

With `CC(C)(CC(O)C#N)/[N+]([O-])=[N+](\[O-])C(C)(C)CC(O)C#N` (centres undefined), the TGI in assay [1] was 74.5 µM; in assay [2], 30.4 µM; in assay [3], over 100 µM; in assay [4], 77 µM; in assay [5] it was over 100 µM; in assay [6], 83.1 µM. Besides, the TGI in assay [7] is over 100 µM; in assay [8], over 100 µM; in [9], 76.2 µM; in assay [10], 58.1 µM.

As for `O=C(Cc1ccccc1)NN1C(=O)C(Cl)C1c1ccccc1O` (centres undefined), the TGI in assay [1] is over 100 µM; in assay [2], over 100 µM; in [3], 26.7 µM; in assay [4] it was 52.5 µM; in assay [5], over 100 µM; in assay [6], over 100 µM. The TGI is over 100 µM in [8], over 100 µM in assay [9] and 71.5 µM in assay [10].

Turning to `CCOc1ccc(-n2nnc3c(N)nc(N)nc32)cc1`, the TGI in [1], in [2], in [3], in assay [4], in [5] and in [7] was over 100 µM each time. Further, the TGI in [8], in [9] and in assay [10] was over 100 µM in each case.

Turning to `CC(C)=C/C=C1/CS(=O)(=O)C=C1C`, the TGI in assay [1], in [2], in assay [3], in assay [4], in assay [5] and in assay [7] was over 100 µM each time. Also, the TGI in [8], in assay [9] and in [10] was over 100 µM throughout.

Take `O=[As](O)(O)c1ccc(N=Nc2ccc(O)cc2)cc1`: the TGI in assay [1], in [2], in assay [3], in assay [4], in assay [5] and in assay [6] was over 100 µM each time. Further, the TGI in assay [7], in assay [8] and in assay [9] was over 100 µM each time.

As for `CC1OC(O[C@H]2/C=C/C=C/C=C/C=C/C=C/C=C/C=C/[C@H](C)[C@@H](O)[C@@H](C)[C@H](C)OC(=O)CC(O)CC(O)CCC(O)C(O)CC(O)C[C@]3(O)C[C@H](O)C(C(=O)O)C(C2)O3)C(O)[C@H](N)C1O` (some centres undefined), the GI50 in [1] is 1.68 µM; in assay [2], 3.16 µM; in assay [3], 3.4 µM; in [4], 2 µM; in [5], 2.9 µM; in assay [6], 2.06 µM. In addition, the GI50 was 3.51 µM in assay [7], 25.3 µM in assay [9] and 1.75 µM in assay [10]. Besides, the TGI in assay [1] stood at 3.18 µM; in assay [2] it was 11.7 µM; in assay [3], 11 µM; in assay [4], 4.31 µM; in assay [5], 9.86 µM; in [6] it was 4.29 µM. Further, the TGI in assay [7] is 12.8 µM; in [9], over 100 µM; in assay [10], 3.4 µM.

In the case of `COc1ccc2c(c1)CCN1CCc3cc(OC)c(OC)cc3CC21` (centres undefined), the TGI in assay [1] is over 100 µM; in assay [2], over 100 µM; in assay [3], over 10 µM; in [4], over 100 µM; in assay [5] it was over 100 µM; in assay [6], over 100 µM. The TGI in [8], in assay [9] and in [10] was over 100 µM throughout.

Turning to `CC(=O)OCC1OC(n2c(=O)[nH]c(=O)c3sccc32)C(Br)C1OC(C)=O` (centres undefined), the TGI in assay [1], in [2], in assay [3], in assay [4], in [5] and in assay [6] was over 100 µM each time. Further, the TGI in assay [7], in [9] and in assay [10] was over 100 µM each time.
